Where “and” joins values, the source holds several entries; their conditions need not be identical. Identical values can stand only once.

Assay [1] has as its system TGR in newly transformed schistosomula (NTS). The assay can be described thus: TGR inhibition in NTS with TRFS-Green fluorescent probe. The class given is cell-based, S. mansoni. As to conditions: for TRFS-Green fluorescence in NTS: 2 h with inhibitor (30 µM; AF 3 µM) then TRFS-Green 10 µM. On the procedure:
TGR inhibition in NTS was assessed using a fluorescent probe TRFS-Green (Medchemexpress)[43]. NTS prepared as previously described and cultured in M199 supplemented with 5.5 mM D-glucose, penicillin-streptomycin and 5% heat inactivated fetal bovine serum were incubated at 37 °C in a clear bottom flat well plate in a 5% CO2 incubator overnight. […] NTS were further treated with TRFS-Green (10 µM) for additional 4 h and rinsed with M199 medium to remove residual TRFS-Green. Fluorescence images were obtained using Keyence BZ-X800. The quantification of fluorescence intensity upon the uptake of TRFS-Green by NTS was performed by a fluorescent microplate imager (BioTek Cytation3) (excitation, 438 nm; emission, 538 nm) hourly for 5 h and after 24 h.

In a further assay the test system is S. japonicum adult worms. The assay can be described thus: Schistosomicidal activity ex vivo, S. japonicum adult worms. The class given is cell-based. As to conditions: for LD50 ex vivo S. japonicum adult: 48 h exposure. On the procedure: Three-week old, female Swiss-Webster mice obtained from the Charles River were housed in the Comparative Research Center of Rush University Medical Center. Mice were infected by percutaneous tail exposure to about 200 S. mansoni or 50 S. japonicum cercaria for adult worms and about 1000 cercaria for juvenile S. mansoni worms through natural transdermal penetration of the cercariae for 1 h[81].
DMSO formulated compounds were diluted with phenol red free M199 medium or RPMI medium for NTS or juvenile and adult worms, respectively, at <1% DMSO final concentrations. NTS, juvenile and adult worms from overnight cultures were tested against compounds in triplicate. Controls were treated with DMSO alone or 5 µM AF as a positive control in appropriate medium. […] Schistosome viabilities in the presence of the compounds were assessed using this formula: % Viability = Averages of Test / Averages of DMSO Control x 100.

The target in assay [2] is T1, TGR (Schistosoma mansoni, UniProt Q962Y6).
T1 construct: made in house
T1 sequence (Q962Y6 1-598): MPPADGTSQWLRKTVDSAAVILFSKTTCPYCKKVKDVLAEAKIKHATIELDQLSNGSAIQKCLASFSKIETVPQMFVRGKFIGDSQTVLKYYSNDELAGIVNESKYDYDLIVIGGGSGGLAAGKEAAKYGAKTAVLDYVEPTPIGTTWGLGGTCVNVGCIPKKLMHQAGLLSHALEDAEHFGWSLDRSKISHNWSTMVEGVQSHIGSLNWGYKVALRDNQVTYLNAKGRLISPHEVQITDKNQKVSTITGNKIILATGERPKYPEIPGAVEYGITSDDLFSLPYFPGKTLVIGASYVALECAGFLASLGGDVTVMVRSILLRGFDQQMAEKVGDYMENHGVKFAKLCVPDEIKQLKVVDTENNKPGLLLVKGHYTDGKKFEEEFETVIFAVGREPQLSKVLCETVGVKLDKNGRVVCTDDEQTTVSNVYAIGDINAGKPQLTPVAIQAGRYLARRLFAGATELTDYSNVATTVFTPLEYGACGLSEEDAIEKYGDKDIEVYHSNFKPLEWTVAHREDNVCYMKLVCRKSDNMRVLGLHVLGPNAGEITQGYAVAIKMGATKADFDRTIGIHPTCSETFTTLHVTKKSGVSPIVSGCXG
Briefly: Time dependence of inhibition. Also on record: avg % inhib, 0.5 hr / avg % inhib, 1 hr / avg % inhib, 2 hr / avg % inhib, 3 hr / avg % inhib, 6 hr / avg % inhib, 24 hr: tested at 50 µM. In kind it is biochemical. The following applies: for rate, 0.5 hr / avg % inhib, 0.5 hr / % inhib, 0.5 hr / rate, 1 hr / avg % inhib, 1 hr / % inhib, 1 hr / rate, 2 hr / avg % inhib, 2 hr / % inhib, 2 hr / rate, 3 hr / avg % inhib, 3 hr / % inhib, 3 hr / rate, 6 hr / avg % inhib, 6 hr / % inhib, 6 hr / rate, 24 hr / avg % inhib, 24 hr / % inhib, 24 hr: panel d Time Dependence; for avg % inhib, 0.5 hr / avg % inhib, 1 hr / avg % inhib, 2 hr / avg % inhib, 3 hr / avg % inhib, 6 hr / avg % inhib, 24 hr: average. As for the experimental part:
TGR was incubated at room temperature (up to 6 h) and at 4 °C for 6 to 24 h with 50 µM inhibitor and 100 µM NADPH for the indicated times. Then DTNB (3 mM) and NADPH (100 µM) were added, and the reaction was monitored at A412 for 5 min. The assay was done in triplicate.

The target in assay [3] is T1, TGR. Briefly: Thermal shift assay (TSA). In kind it is binding. Further details: key to Avg. Tm / Tm, replicate 1-3: Tm in °C, from a 25–95 °C melt curve. The following applies: for Avg. Tm / Tm, replicate 1-3: TGR + 100 µM compound; for Avg. Tm, + 500 µM NADPH / Tm, replicate 1-3, + 500 µM NADPH: TGR + 100 µM compound + 500 µM NADPH; for Tm, replicate 1-3, + 500 µM NADPH / Tm, replicate 1-3: single replicates; for effect on Tm of oxidized TGR: without NADPH; for increase in the Tm of TGR in the presence of NADPH: 500 µM NADPH. As for the experimental part: Samples were prepared by using a final concentration of 0.25 mg/ml TGR diluted in TGR reaction buffer to the desired volume. To evaluate reduced TGR, 500 µM NADPH was added. […] After the preincubation period, 20 µL samples were pipetted into a BioRad un-skirted PCR 96 well plate and sealed with MicroAmp^TM Optical Adhesive film. The plate was then centrifuged for 5 min at 1000 × g. TSA was carried out using a BioRad CFX Connect qPCR instrument with a melt curve setting of 25 − 95 °C, in increments of 0.5 °C/10 seconds. The SYBR green channel was used to detect fluorescence as the wavelength of flavin fluorescence overlaps with that of SYBR green. BioRad CFX Maestro 5.2 was used to analyze TSA data.

As for `CC(=O)OC[C@H]1O[C@@H]([S-])[C@H](OC(C)=O)[C@@H](OC(C)=O)[C@@H]1OC(C)=O.CCP(CC)CC.[Au+]` [AF, auranofin, reference compound], the “TRFS-Green fluorescence in NTS” value in assay [1] is recorded as “significant decreases in fluorescence”.

As to `CCc1ccccc1-c1nc(CN[C@@H]2C[C@@H]3C[C@H]([C@H]2C)C3(C)C)c(C)o1` [Compound 2], the “TRFS-Green fluorescence in NTS” value in assay [1] was “significant decreases in fluorescence”. Also, the “production of green fluorescent dye in TRFS-green assay” value in assay [1] (compound at 5 µM) is on record as “abolished”. Also, the “LD50 ex vivo S. japonicum adult” value in the assay on S. japonicum adult worms was 11.1 ± 1.35 µM. The compound also showed a viability at 5 µM in the assay with S. japonicum adult worms (Schistosoma japonicum, S. japonicum adult worms, 48 hr, Conc. 5 µM) of 52.5%. For the same compound, in the assay on S. japonicum adult worms (Schistosoma japonicum, S. japonicum adult worms, 48 hr, Conc. 15 µM), the viability at 15 µM came to 30.6%. This compound yielded a viability at 30 µM with S. japonicum adult worms (Schistosoma japonicum, S. japonicum adult worms, 48 hr, Conc. 30 µM) of 3.64%.

Consider `Cc1oc(C2CCCCC2)nc1CN[C@@H]1C[C@@H]2C[C@H]([C@H]1C)C2(C)C` [Compound 4], for which, at TGR [2], the “rate, 0.5 hr” value is 0.06468 and 0.06599 and 0.06659; the “avg % inhib, 0.5 hr” value was 18.4758%; the “rate, 1 hr” value was 0.05061 and 0.05195 and 0.05284; the “avg % inhib, 1 hr” value is on record as 30.1534%. Further, on TGR [2], the “rate, 2 hr” value is 0.03578 and 0.03672 and 0.03844; the “avg % inhib, 2 hr” value was 45.3087%; the “rate, 3 hr” value was 0.02569 and 0.02601 and 0.02662; the “avg % inhib, 3 hr” value is listed as 55.4006%. In addition, on TGR [2], the “rate, 6 hr” value is 0.01404 and 0.01371; the “avg % inhib, 6 hr” value was 70.958%; the “rate, 24 hr” value is 0.004212 and 0.004652 and 0.005413; the “avg % inhib, 24 hr” value turned out to be 87.319%. Further, at TGR [2] (replicates), the “% inhib, 0.5 hr” value was 18.6722% and 19.1992% and 17.556%; the “% inhib, 1 hr” value was 31.2738% and 29.387% and 29.7994%; the “% inhib, 2 hr” value is 46.082% and 46.1584% and 43.6859%; the “% inhib, 3 hr” value was 55.9121% and 55.5156% and 54.774%. In addition, on TGR [2] (replicates), the “% inhib, 6 hr” value was 70.2542% and 71.6618%; the “% inhib, 24 hr” value was 88.741% and 87.5248% and 85.6913%. The “TRFS-Green fluorescence in NTS” value in assay [1] is “significant decreases in fluorescence”. Besides, in the assay on S. japonicum adult worms, the “LD50 ex vivo S. japonicum adult” value worked out at 27.1 ± 1.75 µM.

`Cc1oc(-c2ccc3ccccc3c2)nc1CNC1CCCCCC1` [Compound 5]: at TGR [2], the “rate, 0.5 hr” value was 0.06403 and 0.06491 and 0.06611; the “avg % inhib, 0.5 hr” value came out at 19.3871%; the “rate, 1 hr” value is 0.05507 and 0.05598 and 0.05641; the “avg % inhib, 1 hr” value amounted to 24.7276%. Further, on TGR [2], the “rate, 2 hr” value was 0.04485 and 0.04477 and 0.04629; the “avg % inhib, 2 hr” value was 32.9849%; the “rate, 3 hr” value is 0.03515 and 0.03538 and 0.0359; the “avg % inhib, 3 hr” value came out at 39.3918%. Also, on TGR [2], the “rate, 6 hr” value is 0.02164 and 0.02197 and 0.02345; the “avg % inhib, 6 hr” value came to 53.9938%; the “rate, 24 hr” value is 0.00977 and 0.01005 and 0.01035; the “avg % inhib, 24 hr” value was found to be 73.1913%. Further, at TGR [2] (replicates), the “% inhib, 0.5 hr” value is 19.4895% and 20.5216% and 18.1503%; the “% inhib, 1 hr” value is 25.2173% and 23.9092% and 25.0565%; the “% inhib, 2 hr” value is 32.4141% and 34.3548% and 32.1858%; the “% inhib, 3 hr” value is 39.6774% and 39.4903% and 39.0078%. Moreover, on TGR [2] (replicates), the “% inhib, 6 hr” value was 54.1525% and 54.5887% and 53.2403%; the “% inhib, 24 hr” value is 73.884% and 73.0491% and 72.6408%. At TGR [3], the “Avg. Tm” value is 73.5; the “Avg. Tm, + 500 µM NADPH” value came out at 73.5; the “effect on Tm of oxidized TGR” value is listed as “Neither fast 6-9 nor slow TGR inhibitors 1, 3, 5 affected the Tm”. For the same compound, at TGR [3] (in °C (unit assumed)), the “Tm, replicate 1-3, + 500 µM NADPH” value came to 73.5 and the “Tm, replicate 1-3” value turned out to be 73.5.

Regarding `C#CCN(Cc1nc(-c2ccccc2)oc1C)[C@@H]1C[C@@H]2C[C@H]([C@H]1C)C2(C)C` [Compound 6], at TGR [2] (panel c, time 0 (time unit not given), replicates), the “TGR activity relative to dmso, time 0” value was 3.265 and 0.9012. For the same compound, the “TGR activity relative to dmso, time 5” value on TGR [2] (panel c, time 5 (time unit not given), replicates) is 0.7526 and -0.07048 and -0.5247. Also, the “TGR activity relative to dmso, time 10” value at TGR [2] (panel c, time 10 (time unit not given), replicates) was 0.5708 and -0.4368 and -0.3757. For the same compound, the “TGR activity relative to dmso, time 15” value on TGR [2] (panel c, time 15 (time unit not given), replicates) was 0.7215 and 0.1963 and -0.1983. Moreover, the “TGR activity relative to dmso, time 30” value on TGR [2] (panel c, time 30 (time unit not given), replicates) is 2.551 and 1.111 and 1.493.

On to `CC1C(NCc2cn(C3OCC(O)C(O)C3O)c3ccccc23)CC2CC1C2(C)C` (stereo not drawn) [Compound 9], for which the “shift of Tm of reduced TGR” value at TGR [3] (400uM compound) amounted to 1.5 °C. Moreover, the “shift of Tm of reduced TGR” value on TGR [3] (1mM compound) was found to be 3 °C. In addition, on TGR [3], the “Avg. Tm” value was 74.8; the “Avg. Tm, + 500 µM NADPH” value was determined as 68; the “Tm, replicate 1-3” value is 74.5 (2×) and 75; the “effect on Tm of oxidized TGR” value is “doesn’t shift the Tm”. Besides, the “Tm, replicate 1-3, + 500 µM NADPH” value at TGR [3] (in °C (unit assumed)) was 67.5 and 68 and 69.

In the case of `C[C@@H]1[C@H]2C[C@@H](C[C@H]1NCc1cc(-c3ccccc3)[nH]n1)C2(C)C` [Compound 11], on TGR [3], the “increase in the Tm of TGR in the presence of NADPH” value is “no effect”; the “Avg. Tm” value is 73.5; the “Avg. Tm, + 500 µM NADPH” value is 63.67; the “Tm, replicate 1-3, + 500 µM NADPH” value was 63.5 (2×) and 64. The “effect on Tm of oxidized TGR” value on TGR [3] is recorded as “no effect”. Further, the “Tm, replicate 1-3” value at TGR [3] (in °C (unit assumed)) is 73.5.

Turning to `C[C@@H]1[C@H]2C[C@@H](C[C@H]1NCc1nc3ccccc3n1C)C2(C)C` [Compound 12], on TGR [3], the “increase in the Tm of TGR in the presence of NADPH” value is reported as “no effect”; the “Avg. Tm” value was determined as 73.5; the “Avg. Tm, + 500 µM NADPH” value is 64; the “effect on Tm of oxidized TGR” value is recorded as “no effect”. For the same compound, at TGR [3] (in °C (unit assumed)), the “Tm, replicate 1-3, + 500 µM NADPH” value amounted to 64 and the “Tm, replicate 1-3” value was 73.5. Besides, the “TRFS-Green fluorescence in NTS” value in assay [1] is on record as “negligible effects”.
